{"source": "ChEMBL document CHEMBL3865792", "about": "“Antioxidant and antitumor activity of trolox, trolox succinate, and α-tocopheryl succinate conjugates with nitroxides” (Eur J Med Chem, 2016)", "data": [{"test_system": "not listed separately", "assay": "Cytotoxicity against mouse LMTK cells assessed as reduction in cell viability after 72 hrs by MTT assay", "format": "toxicity", "settings": "not given", "units": {"IC50 at 72 h": "µM"}, "values": [{"smiles": "Cc1c(C)c2c(c(C)c1OC(=O)CCC(=O)O)CCC(C)(C(=O)NC1CC(C)(C)N([O])C1(C)C)O2", "note": "(stereo not given)", "IC50 at 72 h": "> 300"}]}, {"test_system": "not listed separately", "assay": "Cytotoxicity against human MT4 cells assessed as reduction in cell viability after 72 hrs by MTT assay", "format": "functional, cell-based", "settings": "MT4, 72 h", "units": {"IC50": "µM"}, "values": [{"smiles": "Cc1c(C)c2c(c(C)c1OC(=O)CCC(=O)O)CCC(C)(C(=O)NC1CC(C)(C)N([O])C1(C)C)O2", "note": "(stereo not given)", "IC50": "> 300"}]}, {"test_system": "not listed separately", "assay": "Ratio of IC50 for human CEM13 cells to concentration causing antioxidant activity in Salmonella typhimurium TA102 harboring […] mutant", "format": "functional", "settings": "not given", "values": [{"smiles": "Cc1c(C)c2c(c(C)c1OC(=O)CCC(=O)O)CCC(C)(C(=O)NC1CC(C)(C)N([O])C1(C)C)O2", "note": "(stereo not given)", "Ratio": "100 - 1000"}]}, {"test_system": "not listed separately", "assay": "Ratio of IC50 for human RPMI8226 cells to concentration causing antioxidant activity in Salmonella typhimurium TA102 harboring […] mutant", "format": "functional, RPMI-8226", "settings": "not given", "values": [{"smiles": "Cc1c(C)c2c(c(C)c1OC(=O)CCC(=O)O)CCC(C)(C(=O)NC1CC(C)(C)N([O])C1(C)C)O2", "note": "(stereo not given)", "Ratio": "100 - 1000"}]}, {"test_system": "not listed separately", "assay": "Cytotoxicity against human MCF7 cells assessed as reduction in cell viability at 300 uM after 72 hrs by MTT assay", "format": "functional", "settings": "MCF7, 72 h", "units": {"inhibition at 300 µM": "%"}, "values": [{"smiles": "Cc1c(C)c2c(c(C)c1OC(=O)CCC(=O)O)CCC(C)(C(=O)NC1CC(C)(C)N([O])C1(C)C)O2", "note": "(stereo not given)", "inhibition at 300 µM": 25}]}, {"test_system": "not listed separately", "assay": "Cytotoxicity against human RPMI8226 cells assessed as reduction in cell viability after 72 hrs by MTT assay", "format": "functional, cell-based", "settings": "RPMI-8226, 72 h", "units": {"IC50": "µM"}, "values": [{"smiles": "Cc1c(C)c2c(c(C)c1OC(=O)CCC(=O)O)CCC(C)(C(=O)NC1CC(C)(C)N([O])C1(C)C)O2", "note": "(stereo not given)", "IC50": "> 300"}]}, {"test_system": "Salmonella typhimurium", "assay": "Genotoxicity in Salmonella typhimurium TA102 harboring […] mutant assessed as frequency of reversion from histidine auxotrophy to prototrophy at 30 mM after 48 hrs by Ames test (reference value: 209 +/- 10 No _unit)", "format": "toxicity, organism-based", "settings": "salmonella enterica subsp. enterica serovar typhimurium, 30000 µM", "values": [{"smiles": "Cc1c(C)c2c(c(C)c1OC(=O)CCC(=O)O)CCC(C)(C(=O)NC1CC(C)(C)N([O])C1(C)C)O2", "note": "(stereo not given)", "Activity": 221}]}, {"test_system": "not listed separately", "assay": "Ratio of IC50 for human HEPG2 cells to concentration causing antioxidant activity in Salmonella typhimurium TA102 harboring […] mutant", "format": "functional", "settings": "not given", "values": [{"smiles": "Cc1c(C)c2c(c(C)c1OC(=O)CCC(=O)O)CCC(C)(C(=O)NC1CC(C)(C)N([O])C1(C)C)O2", "note": "(stereo not given)", "Ratio": "100 - 1000"}]}, {"test_system": "not listed separately", "assay": "Cytotoxicity against hamster AG17-1 cells assessed as reduction in cell viability at 300 uM after 72 hrs by MTT assay", "format": "toxicity, cell-based, Cricetulus griseus", "settings": "Chinese hamster, read-out: INH", "units": {"cytotoxicity at 72 h, 300 µM": "%"}, "values": [{"smiles": "Cc1c(C)c2c(c(C)c1OC(=O)CCC(=O)O)CCC(C)(C(=O)NC1CC(C)(C)N([O])C1(C)C)O2", "note": "(stereo not given)", "cytotoxicity at 72 h, 300 µM": 27}]}, {"test_system": "not listed separately", "assay": "Cytotoxicity against human HepG2 cells assessed as reduction in cell viability after 72 hrs by MTT assay", "format": "functional, cell-based", "settings": "HepG2, 72 h", "units": {"IC50": "µM"}, "values": [{"smiles": "Cc1c(C)c2c(c(C)c1OC(=O)CCC(=O)O)CCC(C)(C(=O)NC1CC(C)(C)N([O])C1(C)C)O2", "note": "(stereo not given)", "IC50": "> 300"}]}, {"test_system": "not listed separately", "assay": "Ratio of IC50 for human MT4 cells to concentration causing antioxidant activity in Salmonella typhimurium TA102 harboring […] mutant", "format": "functional", "settings": "not given", "values": [{"smiles": "Cc1c(C)c2c(c(C)c1OC(=O)CCC(=O)O)CCC(C)(C(=O)NC1CC(C)(C)N([O])C1(C)C)O2", "note": "(stereo not given)", "Ratio": "100 - 1000"}]}, {"test_system": "not listed separately", "assay": "Ratio of IC50 for human U937 cells to concentration causing antioxidant activity in Salmonella typhimurium TA102 harboring […] mutant", "format": "functional, U-937", "settings": "not given", "values": [{"smiles": "Cc1c(C)c2c(c(C)c1OC(=O)CCC(=O)O)CCC(C)(C(=O)NC1CC(C)(C)N([O])C1(C)C)O2", "note": "(stereo not given)", "Ratio": "100 - 1000"}]}, {"test_system": "not listed separately", "assay": "Cytotoxicity against human HepG2 cells assessed as reduction in cell viability at 300 uM after 72 hrs by MTT assay", "format": "functional", "settings": "HepG2, 72 h", "units": {"inhibition at 300 µM": "%"}, "values": [{"smiles": "Cc1c(C)c2c(c(C)c1OC(=O)CCC(=O)O)CCC(C)(C(=O)NC1CC(C)(C)N([O])C1(C)C)O2", "note": "(stereo not given)", "inhibition at 300 µM": 25}]}, {"test_system": "not listed separately", "assay": "Cytotoxicity against human MCF7 cells assessed as reduction in cell viability after 72 hrs by MTT assay", "format": "functional, cell-based", "settings": "MCF7, 72 h", "units": {"IC50": "µM"}, "values": [{"smiles": "Cc1c(C)c2c(c(C)c1OC(=O)CCC(=O)O)CCC(C)(C(=O)NC1CC(C)(C)N([O])C1(C)C)O2", "note": "(stereo not given)", "IC50": "> 300"}]}, {"test_system": "not listed separately", "assay": "Ratio of IC50 for human MCF7 cells to concentration causing antioxidant activity in Salmonella typhimurium TA102 harboring […] mutant", "format": "functional", "settings": "not given", "values": [{"smiles": "Cc1c(C)c2c(c(C)c1OC(=O)CCC(=O)O)CCC(C)(C(=O)NC1CC(C)(C)N([O])C1(C)C)O2", "note": "(stereo not given)", "Ratio": "100 - 1000"}]}, {"test_system": "not listed separately", "assay": "Cytotoxicity against human RPMI8226 cells assessed as reduction in cell viability at 300 uM after 72 hrs by MTT assay", "format": "functional", "settings": "RPMI-8226, 72 h", "units": {"inhibition at 300 µM": "%"}, "values": [{"smiles": "Cc1c(C)c2c(c(C)c1OC(=O)CCC(=O)O)CCC(C)(C(=O)NC1CC(C)(C)N([O])C1(C)C)O2", "note": "(stereo not given)", "inhibition at 300 µM": 28}]}, {"test_system": "not listed separately", "assay": "Genotoxicity in Escherichia coli PQ37 expressing lacZ gene assessed as ratio of inducible beta-galactosidase activity to alkaline phosphatase activity at 30 mM after 2 hrs by SOS-chromotest relative to control", "format": "toxicity", "settings": "Escherichia coli PQ37 cells expressing lacZ gene, read-out: FC", "values": [{"smiles": "Cc1c(C)c2c(c(C)c1OC(=O)CCC(=O)O)CCC(C)(C(=O)NC1CC(C)(C)N([O])C1(C)C)O2", "note": "(stereo not given)", "fold induction at 2 h, 30000 µM": 1.2}]}, {"test_system": "not listed separately", "assay": "Cytotoxicity against human U937 cells assessed as reduction in cell viability after 72 hrs by MTT assay", "format": "functional, cell-based", "settings": "U-937, 72 h", "units": {"IC50": "µM"}, "values": [{"smiles": "Cc1c(C)c2c(c(C)c1OC(=O)CCC(=O)O)CCC(C)(C(=O)NC1CC(C)(C)N([O])C1(C)C)O2", "note": "(stereo not given)", "IC50": 163}]}, {"test_system": "Salmonella enterica subsp. enterica serovar Typhimurium", "assay": "Antioxidant activity in Salmonella typhimurium TA102 harboring […] mutant assessed as inhibition of t-BuO2H-dependant mutant formation at 30 uM preincubated with compound followed by t-BuO2H addition after 48 hrs by Ames test", "format": "functional", "settings": "not given", "units": {"inhibition": "%"}, "values": [{"smiles": "Cc1c(C)c2c(c(C)c1OC(=O)CCC(=O)O)CCC(C)(C(=O)NC1CC(C)(C)N([O])C1(C)C)O2", "note": "(stereo not given)", "inhibition": 33}]}, {"test_system": "Salmonella enterica subsp. enterica serovar Typhimurium", "assay": "Antioxidant activity in Salmonella typhimurium TA102 harboring […] mutant assessed as inhibition of t-BuO2H-dependant mutant formation at 3 uM preincubated with compound followed by t-BuO2H addition after 48 hrs by Ames test", "format": "functional", "settings": "not given", "units": {"inhibition": "%"}, "values": [{"smiles": "Cc1c(C)c2c(c(C)c1OC(=O)CCC(=O)O)CCC(C)(C(=O)NC1CC(C)(C)N([O])C1(C)C)O2", "note": "(stereo not given)", "inhibition": 11}]}, {"test_system": "Salmonella enterica subsp. enterica serovar Typhimurium", "assay": "Antioxidant activity in Salmonella typhimurium TA102 harboring […] mutant assessed as inhibition of t-BuO2H-dependant mutant formation at 0.3 uM preincubated with compound followed by t-BuO2H addition after 48 hrs by Ames test", "format": "functional", "settings": "not given", "units": {"inhibition": "%"}, "values": [{"smiles": "Cc1c(C)c2c(c(C)c1OC(=O)CCC(=O)O)CCC(C)(C(=O)NC1CC(C)(C)N([O])C1(C)C)O2", "note": "(stereo not given)", "inhibition": 6}]}, {"test_system": "not listed separately", "assay": "Cytotoxicity against mouse LMTK cells assessed as reduction in cell viability at 300 uM after 72 hrs by MTT assay", "format": "toxicity", "settings": "read-out: INH", "units": {"cytotoxicity at 72 h, 300 µM": "%"}, "values": [{"smiles": "Cc1c(C)c2c(c(C)c1OC(=O)CCC(=O)O)CCC(C)(C(=O)NC1CC(C)(C)N([O])C1(C)C)O2", "note": "(stereo not given)", "cytotoxicity at 72 h, 300 µM": 0}]}, {"test_system": "not listed separately", "assay": "Cytotoxicity against hamster AG17-1 cells assessed as reduction in cell viability after 72 hrs by MTT assay", "format": "toxicity, cell-based, Cricetulus griseus", "settings": "Chinese hamster", "units": {"IC50 at 72 h": "µM"}, "values": [{"smiles": "Cc1c(C)c2c(c(C)c1OC(=O)CCC(=O)O)CCC(C)(C(=O)NC1CC(C)(C)N([O])C1(C)C)O2", "note": "(stereo not given)", "IC50 at 72 h": "> 300"}]}, {"test_system": "not listed separately", "assay": "Cytotoxicity against human MT4 cells assessed as reduction in cell viability at 300 uM after 72 hrs by MTT assay", "format": "functional", "settings": "MT4, 72 h", "units": {"inhibition at 300 µM": "%"}, "values": [{"smiles": "Cc1c(C)c2c(c(C)c1OC(=O)CCC(=O)O)CCC(C)(C(=O)NC1CC(C)(C)N([O])C1(C)C)O2", "note": "(stereo not given)", "inhibition at 300 µM": 45}]}, {"test_system": "not listed separately", "assay": "Cytotoxicity against human CEM13 cells assessed as reduction in cell viability after 72 hrs by MTT assay", "format": "functional, cell-based", "settings": "CEM13, 72 h", "units": {"IC50": "µM"}, "values": [{"smiles": "Cc1c(C)c2c(c(C)c1OC(=O)CCC(=O)O)CCC(C)(C(=O)NC1CC(C)(C)N([O])C1(C)C)O2", "note": "(stereo not given)", "IC50": 205}]}]}
